biological target: AT2 Receptor (AT2R) (Homo sapiens (Human), UniProt P50052); assay: Measurement of inhibitory activity on AT2 receptor (Tag-lite HTRF, Tb-labeled AT2R cells, angiotensin receptor red agonist); format: binding; details: 1 h room temperature
Procedure: Measurement of Inhibitory Activity on AT1 Receptor ([…])/AT2 Receptor (AT2R)
Through the following steps, the inhibitory activity of the compound on AT1R/AT2R (IC50 value) was determined:
1) An appropriate amount of 1×TLB (Tag-lite Buffer) was prepared and well mixed for use.
2) The compound was diluted by 10 times with ddH2O or DMSO. The compound was then dilute to 4 times of the working concentration with 1×TLB and mixed well for use.
3) 8600 nM Tag-lite angiotensin receptor red agonist was diluted to 12 nM (4×Kd) with 1×TLB.
4) 5 ml 1×TLB was taken into a 15 ml centrifuge tube.
5) After thawing 1 tube of Tb-labeled AT1R/AT2R cells in a 37° C. water bath, the cells were quickly transferred to the 1×TLB in step 4), mixed gently, and centrifuged at 1200 g for 5 minutes at room temperature.
6) The supernatant was aspirated gently, and the cells were resuspended and mixed in 2.7 ml 1×TLB, and then placed at room temperature until use.
7) 10 μl cells were added to all test wells, and 5 μl 4× working solution of the compound from step 2) was added to the corresponding test wells. 5 μl 4× Tag-lite angiotensin receptor red agonist well diluted in step 3) was added to all test wells.
8) After leaving the reaction plate at room temperature for 1 h, data were measured and analyzed using Envision HTRF Reader, and the half inhibitory concentration (IC50) of the compound on AT1R/AT2R was calculated with the GraphPad Prism four-parameter equation.

Chain of AT2 Receptor (AT2R) (P50052 whole entry): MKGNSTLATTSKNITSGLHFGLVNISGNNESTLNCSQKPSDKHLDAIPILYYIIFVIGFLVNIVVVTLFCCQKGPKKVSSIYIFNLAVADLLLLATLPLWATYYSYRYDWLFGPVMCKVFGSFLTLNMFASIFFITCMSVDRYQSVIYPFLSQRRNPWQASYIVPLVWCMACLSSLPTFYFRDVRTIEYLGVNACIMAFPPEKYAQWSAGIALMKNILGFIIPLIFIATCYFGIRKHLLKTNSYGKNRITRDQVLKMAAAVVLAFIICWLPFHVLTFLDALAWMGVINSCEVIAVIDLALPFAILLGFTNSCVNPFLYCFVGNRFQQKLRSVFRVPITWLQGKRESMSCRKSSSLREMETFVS

Compound	IC50 [nM]
O=C(O)[C@@H]1[C@H]2CC[C@@H](CN1C(=O)N(c1ccccc1)c1ccccc1)N2C(=O)N1CCCC1c1ccc(Cl)cc1 (stereo in doubt) [Compound C144, (1R,2S,5S)-8-((R)-2-(4-chlorphenyl)pyrrolidine-1-carbonyl)-3-(diphenylcarbamoyl)-3,8-diazabicyclo [3.2.1]octane-2-carboxylic acid]	21.6
O=C(NC1CC2CCC1C(C(=O)O)N2C(=O)C(c1ccccc1)c1ccccc1)c1ccccc1 (stereo in doubt) [Compound C286, (1S,3S,4R)-5-benzamido-2-(2,2-diphenylacetyl)-2-azabicyclo[2.2.2]octane-3-carboxylic acid]	760
O=C(O)[C@H]1[C@@H]2CC[C@H](CN1C(=O)C(c1ccccc1)c1ccccc1)N2C(=O)C(c1ccccc1)c1ccccc1 [Compound C2, (1S,2R,5R)-3,8-bis (2,2-diphenylacetyl)-3,8-diazabicyclo [3.2.1]octane-2-carboxylic acid]	9.11
O=C(O)[C@@H]1[C@H]2CC[C@@H](CN1C(=O)C(c1ccccc1)c1ccccc1)N2C(=O)C(c1ccccc1)c1ccccc1 [Compound C3, (1R,2S,5S)-3,8-bis (2,2-diphenylacetyl)-3,8-diazabicyclo [3.2.1]octane-2-carboxylic acid]	13.9
O=C(O)[C@H]1[C@@H]2CC[C@H](CN1C(=O)C(c1ccccc1)c1ccccc1)N2C(=O)C(c1ccccc1)c1ccccc1 [Compound C4, (1S,2R,5R)-3,8-bis (2,2-diphenylacetyl)-3,8-diazabicyclo [3.2.1]octane-2-carboxylic acid]	9.82
O=C(O)[C@@H]1[C@H]2CC[C@@H](CN1C(=O)N1c3ccccc3C=Cc3ccccc31)N2C(=O)N(c1ccccc1)c1ccccc1 [Compound C7, (1R,2S,5S)-3-(5H-dibenzo[b,f]azepine-5-carbonyl)-8-(diphenylcarbamoyl)-3,8-diazabicyclo[3. 2.1]octane-2-carboxylic acid]	82.7
O=C(O)[C@@H]1[C@H]2CC[C@@H](CN1C(=O)C(c1ccccc1)c1ccccc1)N2C(=O)N1c2ccccc2C=Cc2ccccc21 [Compound C9, (1R,2S,5S)-8-(5H-dibenzo[b,f]azepine-5-carbonyl)-3-(2,2-diphenylacetyl)-3,8-diazabicyclo [3.2.1]octane-2-carboxylic acid]	107
O=C(O)[C@H]1[C@@H]2CC[C@H](CN1C(=O)N(c1ccccc1)c1ccccc1)N2C(=O)N(c1ccccc1)c1ccccc1 [Compound C13, (1S,2R,5R)-3,8-bis (diphenylcarbamoyl)-3,8-diazabicyclo [3.2.1]octane-2-carboxylic acid]	22.2
O=C(O)[C@@H]1[C@H]2CC[C@@H](CN1C(=O)N1c3ccccc3Sc3ccccc31)N2C(=O)C(c1ccccc1)c1ccccc1 [Compound C28, (1R,2S,5S)-8-(2,2-diphenylacetyl)-3-(10H-phenothiazine-10-carbonyl)-3,8-diazabicyclo[3.2.1] octane-2-carboxylic acid]	473
O=C(O)[C@@H]1[C@H]2CC[C@@H](CN1C(=O)C(c1ccccc1)c1ccccc1)N2C(=O)OCc1c(F)cccc1F [Compound C36, (1R,2S,5S)-8-(((2,6-diflurorbenzyl)oxy)carbonyl)-3-(2,2-diphenylacetyl)-3,8-diazabicyclo [3.2.1]octane-2-carboxylic acid]	20.7
O=C(O)[C@@H]1[C@H]2CC[C@@H](CN1C(=O)N(c1ccccc1)c1ccccc1)N2C(=O)N(c1ccccc1)c1ccccc1 [Compound C41, (1R,2S,5S)-3,8-bis (diphenylcarbamoyl)-3,8-diazabicyclo [3.2.1]octane-2-carboxylic acid]	9.77
CN(Cc1ccccc1)C(=O)N1C[C@@H]2CC[C@H]([C@H]1C(=O)O)N2C(=O)C(c1ccccc1)c1ccccc1 [Compound C62, (1R,2S,5S)-3-(benzyl(methyl)carbamoyl)-8-(2,2-diphenylacetyl)-3,8-diazabicyclo[3.2.1]octane-2-carboxylic acid]	104
O=C(O)[C@@H]1[C@H]2CC[C@@H](CN1C(=O)Oc1ccccc1)N2C(=O)N(c1ccccc1)c1ccccc1 [Compound C69, (1R,2S,5S)-8-(diphenylcarbamoyl)-3-(phenoxycarbonyl)-3,8-diazabicyclo [3.2.1]octane-2-carboxylic acid]	170
O=C(O)[C@H]1[C@@H]2CC[C@H](CN1C(=O)OCc1ccccc1)N2C(=O)C(c1ccccc1)c1ccccc1 [Compound C75, (1S,2R,5R)-3-((benzyloxy)carbonyl)-8-(2,2-diphenylacetyl)-3,8-diazabicyclo[3. 2.1]octane-2-carboxylic acid]	54
O=C(O)[C@H]1[C@@H]2CC[C@H](CN1C(=O)C(c1ccccc1)c1ccccc1)N2C(=O)OCc1ccccc1 [Compound C76, (1S,2R,5R)-8-((benzyloxy)carbonyl)-3-(2,2-diphenylacetyl)-3,8-diazabicyclo [3.2.1]octane-2-carboxylic acid]	69.7
O=C(O)[C@@H]1[C@H]2CC[C@@H](CN1C(=O)N(c1ccccc1)c1ccccc1)N2C(=O)C1(c2ccccc2)CCCC1 [Compound C113, (1R,2S,5S)-3-(diphenylcarbamoyl)-8-(1-phenylcyclopentane-1-carbonyl)-3,8-diazabicyclo [3.2.1]octane-2-carboxylic acid]	12.1
CN(Cc1ccccc1F)C(=O)N1[C@H]2CC[C@@H]1[C@@H](C(=O)O)N(C(=O)N(c1ccccc1)c1ccccc1)C2 [Compound C114, (1R,2S,5S)-3-(diphenylcarbamoyl)-8-((2-fluorobenzyl) (methyl)carbamoyl)-3,8-diazabicyclo [3.2.1]octane-2-carboxylic acid]	26.4
O=C(O)[C@@H]1[C@H]2CC[C@@H](CN1C(=O)N(c1ccccc1)c1ccccc1)N2C(=O)Oc1ccccc1 [Compound C115, (1R,2S,5S)-3-(diphenylcarbamoyl)-8-(phenoxycarbonyl)-3,8-diazabicyclo [3.2.1]octane-2-carboxylic acid]	431
CC(NC(=O)N1[C@H]2CC[C@@H]1[C@@H](C(=O)O)N(C(=O)N(c1ccccc1)c1ccccc1)C2)c1ccccc1 (stereo partly drawn) [Compound C117, (1R,2S,5S)-3-(diphenylcarbamoyl)-8-((1-phenylethyl)carbamoyl)-3,8-diazabicyclo [3.2.1]octane-2-carboxylic acid]	61.3
CN(Cc1ccccc1)C(=O)N1[C@H]2CC[C@@H]1[C@@H](C(=O)O)N(C(=O)C1(c3ccccc3)CCCCC1)C2 [Compound C120, (1R,2S,5S)-8-(benzyl(methyl)carbamoyl)-3-(1-phenylcyclohexane-1-carbonyl)-3,8-diazabicyclo [3.2.1]octane-2-carboxylic acid]	350
CN(Cc1cccnc1)C(=O)N1[C@H]2CC[C@@H]1[C@@H](C(=O)O)N(C(=O)N(c1ccccc1)c1ccccc1)C2 [Compound C124, (1R,2S,5S)-3-(diphenylcarbamoyl)-8-(methyl(pyridine-3-ylmethyl)carbamoyl)-3,8-diazabicyclo [3.2.1]octane-2-carboxylic acid]	37.8
CN(Cc1ccncc1)C(=O)N1[C@H]2CC[C@@H]1[C@@H](C(=O)O)N(C(=O)N(c1ccccc1)c1ccccc1)C2 [Compound C125, (1R,2S,5S)-3-(diphenylcarbamoyl)-8-(methyl(pyridine-4-ylmethyl)carbamoyl)-3,8-diazabicyclo [3.2.1]octane-2-carboxylic acid]	19
CN(Cc1ccccn1)C(=O)N1[C@H]2CC[C@@H]1[C@@H](C(=O)O)N(C(=O)N(c1ccccc1)c1ccccc1)C2 [Compound C126, (1R,2S,5S)-3-(diphenylcarbamoyl)-8-(methyl(pyridine-2-ylmethyl)carbamoyl)-3,8-diazabicyclo [3.2.1]octane-2-carboxylic acid]	78
O=C(O)[C@@H]1[C@H]2CC[C@@H](CN1C(=O)N(c1ccccc1)c1ccccc1)N2C(=O)N(Cc1ccccc1)CC(F)(F)F [Compound C128, (1R,2S,5S)-8-(benzyl(2,2,2-trifluoroethyl)carbamoyl)-3-(diphenylcarbamoyl)-3,8-diazabicyclo [3.2.1]octane-2-carboxylic acid]	21.5
CN(Cc1ccccc1)C(=O)N1[C@H]2CC[C@@H]1[C@@H](C(=O)O)N(C(=O)N(c1ccc(F)cc1)c1ccc(F)cc1)C2 [Compound C129, (1R,2S,5S)-8-(benzyl(methyl)carbamoyl)-3-(bis(4-fluorophenyl)carbamoyl)-3,8-diazabicyclo [3.2.1]octane-2-carboxylic acid]	148
O=C(O)[C@@H]1[C@H]2CC[C@@H](CN1C(=O)N(c1ccccc1)c1ccccc1)N2C(=O)N1CCc2ccccc2C1 [Compound C131, (1R,2S,5S)-3-(diphenylcarbamoyl)-8-(1,2,3,4-tetrahydroisoquinoline-2-carbonyl)-3,8-diazabicyclo [3.2.1]octane-2-carboxylic acid]	495
O=C(O)[C@@H]1[C@H]2CC[C@@H](CN1C(=O)N(c1ccccc1)c1ccccc1)N2C(=O)N1CCN(c2ccccc2)CC1 [Compound C132, (1R,2S,5S)-3-(diphenylcarbamoyl)-8-(4-phenylpiperazine-1-carbonyl)-3,8-diazabicyclo[3.2.1] octane-2-carboxylic acid]	482

— patent publication US11453690B2, “Receptor inhibitor, pharmaceutical composition comprising same, and use thereof” (BEIJING TIDE PHARMACEUTICAL CO., LTD., priority 2018, dated 2022)
